In patent EP1724268A1, “COMPOUND HAVING TGF-BETA INHIBITORY ACTIVITY AND PHARMACEUTICAL COMPOSITION CONTAINING SAME” (KIRIN BEER KABUSHIKI KAISHA, priority 2004, dated 2005):
Where two headings read alike, the source gives them in different places.

Test system: TGFβ signal
Test: TGFβ signal inhibitory activity, (SBE)4-Luc reporter in A549 cells (Test Examples 1A and 1B)
Type: cell-based, human
Details: Homo sapiens
Outline: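 Compounds at 3 µM and 10 µM (some 1 µM) were added with 2 ng/ml TGFβ-1 to A549 cells stably expressing an SBE-driven luciferase, then cultured 4 hr. Chemiluminescent luciferase signal gave % inhibition versus TGFβ-alone and no-TGFβ controls.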

[1] = A549, test compound 3 µM, TGFβ-1 2 ng/ml, 4 hr, Table 1A, read-out: TGFβ inhibition rate, %
[2] = A549, test compound 10 µM, TGFβ-1 2 ng/ml, 4 hr, Table 1A, read-out: TGFβ inhibition rate, %
[3] = A549, 3 µM, compounds of Reference Examples (Test Example 1B), read-out: TGFβ inhibition rate, %
[4] = A549, 10 µM, compounds of Reference Examples (Test Example 1B), read-out: TGFβ inhibition rate, %
[5] = A549, read-out: TGFβ inhibition rate, %
[6] = A549, test compound 3 µM, Reference Examples, Table 1B, read-out: TGFβ inhibition rate, %
[7] = A549, test compound 10 µM, Reference Examples, Table 1B, read-out: TGFβ inhibition rate, %

SMILES | inhibition at 3 µM [1] | inhibition at 10 µM [2] | inhibition at 3 µM [3] | inhibition at 10 µM [4] | further results
COc1cc2nccc(Oc3cc4cccnc4nc3-c3ccccc3)c2cc1C(=O)NCc1ccccc1 [Compound 65, 7-Methoxy-4-(2-phenyl-[1,8]naphthyridin-3-yloxy)-quinoline-6-carboxylate benzylamide] | 97% | 100% |  |  | 
COc1cc2c(Oc3cc4cccnc4nc3C)ccnc2cc1OCc1ccccc1 [Compound r397] |  |  | 71% | 100% | 
Cc1cc(Oc2ccnc3ccc(-c4ccsc4)cc23)c(-c2ccccn2)nc1C [Compound 163, 5,6-Dimethyl-3-(6-thiophen-3-yl-quinolin-4-yloxy)-[2,2']bipyridine] | 92% | 100% |  |  | 
COc1cc2ncnc(Oc3cc(C)c(C)nc3-c3cccc(C)n3)c2cc1OC [Compound 41, 6,7-Dimethoxy-4-(5,6,6'-trimethyl-[2,2']bipyridin-3-yloxy)-quinazoline] | 66% | 98% |  |  | 
COc1cc2c(Oc3cc4cccnc4nc3-c3ccccc3)ccnc2cc1OCCO [Compound 178, 2-[6-Methoxy-4-(2-phenyl-[1,8]naphthyridin-3-yloxy)-quinolin-7-yloxy]-ethanol] | 100% | 100% |  |  | 
COc1cc2c(Oc3cc(C)c(C)nc3-c3ccc(C)cn3)ccnc2cc1OCc1ccccc1 [Compound r452] |  |  | 67% | 99% | 
COc1cc2nccc(Oc3cc4cccnc4nc3-c3ccccc3)c2cc1OC(C)C [Compound 118, 3-(6-Isopropoxy-7-methoxy-quinolin-4-yloxy)-2-phenyl-[1,8]naphthyridine] | 100% | 100% |  |  | 
COc1cc2c(Oc3cc4cccnc4nc3-c3ccccc3)ccnc2cc1F [Compound 60, 3-(7-Fluoro-6-methoxy-quinolin-4-yloxy)-2-phenyl-[1,8]naphthyridine] | 76% | 100% |  |  | 
CCc1ccc(Oc2ccnc3ccc(OCCOC(=O)C(C)(C)C)cc23)c(-c2ncccn2)n1 [Compound 207, 2-[4-(6-Ethyl-2-pyrimidin-2-yl-pyridin-3-yloxy)-quinolin-6-yloxy]-ethyl 2,2-dimethyl-propanate] | 93% |  |  |  | 
Cc1ccc(Oc2ccnc3ccc(OCCCN(C)CCO)cc23)c(-c2ncccn2)n1 [Compound 211, 2-(Methyl-{3-[4-(6-methyl-2-pyrimidin-2-yl-pyridin-3-yloxy)-quinolin-6-yloxy]-propyl}-amino)-ethanol] | 54% |  |  |  | 
CCCOC(=O)c1cc2ccccc2cc1Oc1ccnc2cc(OCCCCl)c(OC)cc12 [Compound r325] |  |  | 19% | 60% | 
COc1cc2c(Oc3cc4ccccc4nc3C)ccnc2cc1OCCCN1CCOCC1 [Compound r379] |  |  | 100% | 100% | 
COc1cc2nccc(Oc3ccc(SC)nc3-c3ccccn3)c2cc1OC [Compound r266] |  |  | 92% | 100% | 
COc1cc2nccc(Oc3ccccc3C(=O)c3ccccc3)c2cc1OC [Compound r63] |  |  |  |  | inhibition at 3 µM [5]: 57%; inhibition at 10 µM [5]: 91%
COc1cc2nccc(Oc3ccnc4ccsc34)c2cc1OC [Compound r307] |  |  | 26% | 69% | 
COc1cc2c(Oc3ccc(C)cc3C(=O)c3ccccc3)ccnc2cc1OCCN1CCNCC1 [Compound r128] |  |  |  |  | inhibition at 3 µM [6]: 100%; inhibition at 10 µM [7]: 100%
COc1cc2c(Oc3cc4ccccc4nc3C)ccnc2cc1OCCCNC(=N)N [Compound r377] |  |  | 93% | 100% | 
COc1cc2c(Oc3cc4ccccc4nc3C)ccnc2cc1OCCN1CCC(C(N)=O)CC1 [Compound r362] |  |  | 100% | 100% | 
COc1cc2nccc(Oc3ccc(C)nc3C(OC(C)=O)c3ccccc3)c2cc1OC (centres unmarked) [r218] |  |  | 21% | 56% | 
COc1cc2nccc(Oc3cc4cccnc4cc3C)c2cc1OC [r296] |  |  | 86% | 100% | 
COc1cc2nccc(Oc3cc4cnccc4nc3-c3cccnc3)c2cc1OC [Compound 95, 3-(6,7-Dimethoxy-quinolin-4-yloxy)-2-pyridin-3-yl-[1,6]naphthyridine] | 40% | 85% |  |  | 
Cc1cc(Oc2ccnc3ccc(Br)cc23)c(-c2ccccn2)nc1C [Compound 2, 3-(6-Bromo-quinolin-4-yloxy)-5,6-dimethyl-[2,2']bipyridine] | 100% | 100% |  |  | 
COc1cc2c(Oc3cc4ccccc4nc3C)ccnc2cc1OC[C@H](O)CO [Compound r386] |  |  | 99% |  | 
COc1cc2c(Oc3cc(C)c(C)cc3C(C)=O)ccnc2cc1OCCCn1ccnc1 [Compound r321] |  |  | 100% | 100% | 

SMILES | inhibition at 3 µM [1] | inhibition at 10 µM [2] | inhibition at 3 µM [3] | inhibition at 10 µM [4] | further results
Cc1ccc(-c2ccc3nccc(Oc4cc(C)c(C)nc4-c4ccccn4)c3c2)cc1 [Compound 8, 5,6-Dimethyl-3-(6-p-tolyl-quinolin-4-yloxy)-[2,2']bipyridine] | 60% | 100% |  |  | 
Cc1cc(Oc2ccnc3cc(C(N)=O)ccc23)c(-c2ccccn2)nc1C [Compound 126, 4-(5,6-Dimethyl-[2,2']bipyridinyl-3-yloxy)-quinoline-7-carboxylic acid amide] | 93% | 100% |  |  | 
CCCOC(=O)c1cc2ccccc2cc1Oc1ccnc2cc(OCCn3ccnc3)c(OC)cc12 [Compound r324] |  |  | 86% | 100% | 
Cc1ccc(Oc2ccnc3ccc(OCCCN4CCC(Cc5ccccc5)CC4)cc23)c(-c2ncccn2)n1 [Compound 220, 6-[3-(4-Benzyl-piperidin-1-yl)-propoxy]-4-(6-methyl-2-pyrimidin-2-yl-pyridin-3-yloxy)-quinoline] | 91% | 100% |  |  | 
Cc1cc(Oc2ccnc3ccccc23)c(-c2ccccn2)nc1C [Compound 1, 5,6-Dimethyl-3-(quinolin-4-yloxy)-[2,2']bipyridine] | 100% | 100% |  |  | 
Brc1ccc(-c2nc3ncccc3cc2Oc2ccnc3ccccc23)cc1 [Compound 82, 2-(4-Bromo-phenyl)-3-(quinolin-4-yloxy)-[1,8]naphthyridine] | 25% | 67% |  |  | 
COc1cc2c(Oc3cc(C)c(C)nc3-c3cccc(C)n3)ccnc2cc1OCC(CO)CO [Compound r448] |  |  | 70% | 97% | 
CCOc1ccc(Oc2ccnc3cc(OC)c(OC)cc23)c(C(C)=O)c1 [Compound r178, 1-[2-(6,7-Dimethoxy-quinolin-4-yloxy)-5-ethoxy-phenyl]-ethanone] |  |  | 66% | 97% | 
COc1cc2nccc(Oc3ccc(C)cc3C(C)=O)c2cc1OC [Compound r35] |  |  |  |  | inhibition at 3 µM [6]: 49%; inhibition at 10 µM [7]: 89%
COc1cc2c(Oc3cc4cnccc4nc3C)ccnc2cc1OCC(CO)CO [r409] |  |  | 41% | 88% | 
CCOC(=O)c1cc(I)ccc1Oc1ccnc2cc(OC)c(OC)cc12 [Compound r86] |  |  |  |  | inhibition at 3 µM [6]: 68%; inhibition at 10 µM [7]: 99%
Cc1ccc(Oc2ccnc3ccc(OCCCN(CCO)c4ccccc4)cc23)c(-c2ncccn2)n1 [Compound 219, 2-({3-[4-(6-Methyl-2-pyrimidin-2-yl-pyridin-3-yloxy)-quinolin-6-yloxy]-propyl}-phenylamino)-ethanol] | 96% | 100% |  |  | 
Cc1cc(Oc2ncnc3ccsc23)c(-c2ccccn2)nc1C [Compound 33, 5,6-Dimethyl-3-(thieno[3,2-d]pyrimidin-4-yloxy)-[2,2']bipyridine] | 86% | 99% |  |  | 
COc1cc2nccc(Oc3ccc(C)nc3C#N)c2cc1OC [Compound r213, 3-(6,7-Dimethoxy-quinolin-4-yloxy)-6-methyl-pyridin-2-carbonitrile] |  |  | 28% | 65% | 
COc1cc2c(Oc3cc4ccccc4nc3C)ccnc2cc1OCCCN1C(=O)c2ccccc2C1=O [Compound r380] |  |  | 50% | 89% | 
COc1cc2nccc(Oc3cc(C)c(Cl)cc3C(=O)c3ccccc3)c2cc1OC [r75] |  |  |  |  | inhibition at 3 µM [6]: 97%; inhibition at 10 µM [7]: 100%
COc1cc2nccc(Oc3ccc(C)cc3C(=O)C3CCCC3)c2cc1OC [r58] |  |  |  |  | inhibition at 3 µM [6]: 90%; inhibition at 10 µM [7]: 100%
COc1cc2c(Oc3ccc(C)cc3C(=O)c3ccccc3)ccnc2cc1OCC(O)CN1CCN(C)CC1 (centres unmarked) [Compound r158] |  |  |  |  | inhibition at 3 µM [6]: 100%; inhibition at 10 µM [7]: 100%
Cc1cc(Oc2ccnc3ccc(-c4ccc[nH]4)cc23)c(-c2ccccn2)nc1C [Compound 168, 5,6-Dimethyl-3-[6-(1H-pyrrol-2-yl)-quinolin-4-yloxy]-[2,2']bipyridine] | 92% | 100% |  |  | 
COc1cc2nccc(Oc3cc4cccnc4nc3-c3cccnc3)c2cc1OC [Compound 88, 3-(6,7-Dimethoxy-quinolin-4-yloxy)-2-pyridin-3-yl-[1,8]naphthyridine] | 90% | 100% |  |  | 
Cc1ccc(Oc2ccnc3ccc(OCCC4CCCCC4)cc23)c(-c2ncccn2)n1 [Compound 216, 6-(2-Cyclohexylethoxy)-4-(6-methyl-2-pyrimidin-2-yl-pyridin-3-yloxy)-quinoline] | 84% |  |  |  | 
COc1cc2c(Oc3cc(C)c(C)nc3-c3cccnc3)ccnc2cc1OCCO [Compound r346] |  |  | 99% |  | 
COc1cc2nccc(Oc3cncc(Cl)c3)c2cc1OC [r208] |  |  | 18% | 73% | 
